Reference: patent US9938222B2 (BRISTOL-MYERS SQUIBB COMPANY, priority 2014, dated 2018)

Each molecule was assayed against human GPR120 (Homo sapiens (Human), UniProt Q5NUL3) (assay: GPR120 pERK AlphaScreen SureFire Assay (human GPR120 pERK assay)). Conditions: CHO cells stably transfected with short form of human GPR120.
human GPR120, sequence (Q5NUL3 whole entry): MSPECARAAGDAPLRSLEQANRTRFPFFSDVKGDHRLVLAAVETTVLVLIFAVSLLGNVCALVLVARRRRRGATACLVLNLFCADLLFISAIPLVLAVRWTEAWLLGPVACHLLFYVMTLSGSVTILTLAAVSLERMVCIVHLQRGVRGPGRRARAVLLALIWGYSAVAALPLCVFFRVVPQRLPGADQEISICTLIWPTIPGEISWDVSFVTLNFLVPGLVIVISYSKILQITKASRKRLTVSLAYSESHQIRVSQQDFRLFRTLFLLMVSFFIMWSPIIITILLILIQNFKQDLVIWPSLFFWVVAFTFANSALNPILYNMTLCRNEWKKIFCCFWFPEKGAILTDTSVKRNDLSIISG
Format: cell-based
Source text: GPR120 activity was monitored by measuring phosphorylation of ERK (pERK), since G protein receptors are known to activate the ERK signaling cascade either directly and/or through recruitment of arrestin that serves as a scaffold for downstream signaling events.
GPR120 pERK AlphaScreen SureFire Assay
The human and mouse GPR120-mediated intracellular phosphorylated ERK assays were established using CHOA12 cells stably transfected with the short form of human or mouse GPR120 receptor. Cells were cultured in growth medium consisting of F-12 media (Invitrogen Cat. #11765) with 5% Charcoal/Dextran FBS (Invitrogen Cat. #12676-029), 500 μg/mL GENETICIN® (Life Technologies Cat. #10131-027) and 250 μg/mL Zeocin (Invitrogen Cat. #R250-01). Cells were cryo-preserved at a concentration of 2×10^7 cells/mL, in 90% Charcoal/Dextran FBS and 10% DMSO, and frozen in liquid nitrogen at a low passage number.
For the pERK assay, 2×10^7 cells/mL cryopreserved human and mouse cells were thawed rapidly in a 37° C. water bath and added to a T-225 flask containing 50 mL growth medium. The flasks were placed in a tissue culture incubator overnight (37° C., 5% CO2). The next day, cells were harvested with trypsin (Gibco Cat. #25300-054), resuspended in serum-containing growth medium and counted using a Cellometer and volume adjusted to a concentration of 0.6×10^6 cells/mL. Cells were plated into 384-well clear bottom tissue culture plates (BD Cat. #353962) at 50 μL/well, for a density of 30,000 cells/well using a MULTIDROP® and incubated for 16-18 hours (overnight) at 37° C. with 5% CO2. The next day, cells were serum starved in 30 μL of F-12 media without any serum or antibiotics for 2 hours at 37° C.
Test compounds were 3-fold, 11-point serially diluted in DMSO in a REMP assay plate (Matrix Cat. #4307) by Tecan and 5 μL was transferred into an ECHO source plate (Labcyte Cat. #LC-0200). Cells were then stimulated with 50 nL of compound dilutions using ECHO liquid handler for 7 min at 37° C. Compounds ranged from final assay concentrations of 33.33 μM to 0.56 nM.
The media was then dumped and cells lysed with 20 μL of 1× Lysis buffer from the AlphaScreen SureFire Phospho-ERK 1/2 Kit (Perkin Elmer Cat. #6760617M). The lysis buffer was diluted 5-fold with water before use. The plate was agitated on a shaker for 10 min after which 2 μL was transferred into a 384-well white proxiplate (Perkin Elmer Cat. #6008289). The SureFire assay reagent mix was prepared by mixing 60 parts Reaction Buffer, 10 parts Activation Buffer, 1 part Donor Beads, 1 part Acceptor Beads (Perkin Elmer Cat. #TGRES10K). 3.5 μL/well of this reagent mix was manually added to the proxiplate with a multichannel pipettor. Plates were spun down at 1000 rpm for 2 min, followed by light-protected incubation at room temperature for 2 hours. The plates were read on the Alpha-technology compatible Envision multilabel plate reader using AlphaScreen protocol according to manufacturer's specifications. The agonist effect of compounds was expressed as 100×(average sample-average blank)/(average total-average blank) where sample is the luminescence activity in the presence of test compound, blank is equal to the luminescence activity in the presence of DMSO control and the total is signal induced by 50 μM linolenic acid as reference compound. Activation data for the test compound over a range of concentrations was plotted as percentage activation of the test compound (100%=maximum response). After correcting for background, EC50 values were determined. The EC50 is defined as the concentration of test compound which produces 50% of the maximal response and was quantified using the 4 parameter logistic equation to fit the data.
The human and mouse GPR120-mediated intracellular phosphorylated ERK assays were also established using CHO-K1 cells stably transfected with the short form of human or mouse GPR120 receptor. […]
In the case of `CC(C)Oc1cc(Cl)cc(-c2ccc(CC[C@@H]3C[C@H]3C(=O)O)cc2)c1` (relative stereo) [Example 132, Trans-2-(2-(3′-chloro-5′-isopropoxy-[1,1′-biphenyl]-4-yl)ethyl) cyclopropanecarboxylic acid], the EC50 is reported as 2.44 µM. `O=C(O)[C@@H]1C[C@H]1COCc1ccc(-c2cc(Oc3ccccc3)ccc2F)cc1` (racemic) [Example 25, Trans-2-(((2′-fluoro-5′-phenoxy-[1,1′-biphenyl]-4-yl)methoxy)methyl) cyclopropanecarboxylic acid] showed an EC50 of 0.98 µM. In the case of `O=C(O)[C@@H]1C[C@H]1COc1ccc(-c2cc(Oc3ccc(Cl)cc3)ccc2F)cc1` (racemic) [Example 92, Trans-2-(((5′-(4-Chlorophenoxy)-2′-fluoro-[1,1′-biphenyl]-4-yl)oxy)methyl) cyclopropanecarboxylic acid], the EC50 is reported as 0.3 µM. In the case of `CC(C)Oc1cccc(-c2ccc(OC[C@@H]3C[C@H]3C(=O)O)cc2)c1` (racemic) [Example 73, Trans-2-(((3′-isopropoxy-[1,1′-biphenyl]-4-yl)oxy)methyl) cyclopropanecarboxylic acid], the EC50 is reported as 1.38 µM. For `O=C(O)[C@@H]1C[C@H]1COc1ccc(-c2cnn(Cc3ccccc3)c2)cc1` (racemic) [Example 83, Trans-2-((4-(1-benzyl-1H-pyrazol-4-yl)phenoxy)methyl)cyclopropanecarboxylic acid], the EC50 was 3.05 µM. Work on `CC(C)Oc1cc(F)cc(-c2ccc(OC[C@@H]3C[C@H]3C(=O)O)cc2)c1` (racemic) [Example 55, Trans-2-(((3′-fluoro-5′-isopropoxy-[1,1′-biphenyl]-4-yl)oxy)methyl) cyclopropanecarboxylic acid] yielded an EC50 of 1.06 µM. `CC(C)Oc1ccc(F)c(-c2ccc(OC[C@H]3C[C@@H]3C(=O)O)cc2)c1` (single isomer, unassigned) [Example 2] was tested, and the EC50 was 0.25 µM. With `CC1(C)Cc2c(F)cc(-c3ccc(OC[C@@H]4C[C@H]4C(=O)O)cc3)cc2O1` (racemic) [Example 21, Trans-2-((4-(4-fluoro-2,2-dimethyl-2,3-dihydrobenzofuran-6-yl)phenoxy)methyl) cyclopropanecarboxylic acid] the “EC50 (μM)” value was “Not active”. In the case of `CC(C)Oc1ccc(F)c(-c2ccc(OC[C@@H]3C[C@H]3C(=O)O)c(CC=O)c2)c1` (racemic) [Example 90, Trans-2-(((2′-fluoro-5′-isopropoxy-3-(2-oxoethyl)-[1,1′-biphenyl]-4-yl)oxy)methyl) cyclopropanecarboxylic acid], the EC50 is reported as 0.93 µM. `Cc1ccc(Oc2cc(F)c(F)c(-c3ccc(OCC4CC4C(=O)O)c(F)c3)c2)cc1F` (single isomer, unassigned) [Example 108] gave an EC50 of 0.36 µM. Molecule `Cc1ccc(Oc2ccc(F)c(-c3ccc(OCC4CC4C(=O)O)c(F)c3)c2)cc1F` (racemic) [Example 100, Trans-2-(((2′,3-difluoro-5′-(3-fluoro-4-methylphenoxy)-[1,1′-biphenyl]-4-yl)oxy)methyl)cyclopropanecarboxylic acid] has an EC50 of 0.26 µM. `CC(C)Oc1ccc(F)c(-c2ccc(C[C@H]3C[C@@H]3CC(=O)O)cc2)c1` (racemic) [Example 33, Trans-2-(2-((2′-fluoro-5′-isopropoxy-[1,1′-biphenyl]-4-yl)methyl)cyclopropyl)acetic acid] showed an EC50 of 0.06 µM. For `CC(C)Oc1ccc(F)c(-c2ccc(C[C@H]3C[C@@H]3CC(=O)O)cc2)c1` (single isomer, unassigned) [Example 36, Trans-(2-((2′-fluoro-5′-isopropoxy-[1,1′-biphenyl]-4-yl)methyl)cyclopropyl)acetic acid], the EC50 was 0.06 µM. For `O=C(O)[C@@H]1C[C@H]1COc1ccc(-c2cc(Cl)cc(C(F)(F)F)c2)cc1` (racemic) [Example 124, Trans-2-(((3′-chloro-5′-(trifluoromethyl)-[1,1′-biphenyl]-4-yl)oxy)methyl)cyclopropanecarboxylic acid], the EC50 was 2.44 µM. `O=C(O)[C@@H]1C[C@H]1CCc1ccc(-c2cccc(-n3cccc3)c2)cc1` (racemic) [Example 129, Trans-2-(2-(3′-(1H-pyrrol-1-yl)-[1,1′-biphenyl]-4-yl)ethyl) cyclopropanecarboxylic acid] showed an EC50 of 1.58 µM. `CC(C)Oc1ccc(F)c(-c2ccc(OC[C@@H]3C[C@H]3C(=O)O)cc2)c1` (racemic) [Example 1, Trans-2-(((2′-fluoro-5′-isopropoxy-[1,1′-biphenyl]-4-yl)oxy)methyl) cyclopropanecarboxylic acid] gave an EC50 of 0.37 µM. `COc1ccc(F)c(-c2ccc(CC[C@@H]3C[C@H]3C(=O)O)cc2)c1` (relative stereo) [Example 80, Trans-2-(2-(2′-fluoro-5′-methoxy-[1,1′-biphenyl]-4-yl)ethyl) cyclopropanecarboxylic acid] showed an EC50 of 3.26 µM. `CC(C)Oc1ccc(F)c(-c2ccc(CC[C@@H]3C[C@H]3C(=O)O)cc2)c1` (racemic) [Example 30, Trans-2-(2-(2′-fluoro-5′-isopropoxy-[1,1′-biphenyl]-4-yl)ethyl)cyclopropanecarboxylic acid] was tested, and the EC50 was 0.32 µM. For `CC1(C)Cc2c(cc(F)cc2-c2ccc(OC[C@@H]3C[C@H]3C(=O)O)cc2)O1` (racemic) [Example 20, Trans-2-((4-(6-fluoro-2,2-dimethyl-2,3-dihydrobenzofuran-4-yl)phenoxy)methyl) cyclopropanecarboxylic acid], the EC50 was 0.99 µM. `Cc1ccc(Oc2ccc(F)c(-c3ccc(OC[C@@H]4C[C@H]4C(=O)O)cc3)c2)cn1` (racemic) [Example 114, Trans-2-(((2′-fluoro-5′-((6-methylpyridin-3-yl)oxy)-[1,1′-biphenyl]-4-yl)oxy)methyl) cyclopropanecarboxylic acid] showed an EC50 of 0.14 µM. `CC(C)Oc1cc(F)c(F)c(-c2ccc(OC[C@@H]3C[C@H]3C(=O)O)c(F)c2)c1` (single isomer, unassigned) [Example 66] was tested, and the EC50 was 0.32 µM. In the case of `O=C(O)C1CC1COc1ccc(-c2cc(OC(F)(F)F)ccc2F)cc1` (single isomer, unassigned) [Example 52, Trans-2-(((2′-fluoro-5′-(trifluoromethoxy)-[1,1′-biphenyl]-4-yl)oxy)methyl)cyclopropanecarboxylic acid], the EC50 is reported as 0.62 µM. In the case of `O=C(O)C1CC1COc1ccc(-c2cc(OC(F)(F)F)ccc2F)cc1` (single isomer, unassigned) [Example 53, Trans-2-(((2′-fluoro-5′-(trifluoromethoxy)-[1,1′-biphenyl]-4-yl)oxy)methyl)cyclopropanecarboxylic acid], the EC50 is reported as 0.33 µM. `Cc1ccc(Oc2ccc(F)c(-c3ccc(OCC4CC4C(=O)O)c(F)c3)c2)cc1F` (single isomer, unassigned) [Example 102, Trans-2-(((2′,3-difluoro-5′-(3-fluoro-4-methylphenoxy)-[1,1′-biphenyl]-4-yl)oxy)methyl)cyclopropanecarboxylic acid] was tested, and the EC50 was 0.27 µM. Work on `O=C(O)[C@@H]1C[C@H]1COc1ccc(-c2cc(Oc3cc(F)cc(F)c3)ccc2F)cc1` (relative stereo) [Example 43, Trans-2-(((5′-(3,5-difluorophenoxy)-2′-fluoro-[1,1′-biphenyl]-4-yl)oxy)methyl)cyclopropanecarboxylic acid] yielded an EC50 of 0.28 µM. With `COC(=O)c1cccc(-c2ccc(CC[C@@H]3C[C@H]3C(=O)O)cc2)c1` (racemic) [Example 130, Trans-2-(2-(3′-(methoxycarbonyl)-[1,1′-biphenyl]-4-yl)ethyl) cyclopropanecarboxylic acid] the EC50 was 0.8 µM. With `CC(C)Oc1ccc(F)c(-c2ccc(COC[C@@H]3C[C@H]3C(=O)O)cc2)c1` (racemic) [Example 24, Trans-2-(((2′-fluoro-5′-isopropoxy-[1,1′-biphenyl]-4-yl)methoxy)methyl) cyclopropanecarboxylic acid] the EC50 was 0.44 µM.
